# Key:
# [1] = system: AhR-GUS and AhRV-GUS transformed tobacco plant (mouse AhR/AhRV, Arnt, XRE-GUS); assay: GUS activity in transformed tobacco plants (AhR-GUS / AhRV-GUS) treated with AhR-ligand; format: in vivo, Nicotiana tabacum cv. Sumsun N N; settings: for enhancement of the GUS activity in the presence of AhR-ligands: medium with 25 μM 20-MC, 25 μM β-NF, 50 μM indigo, stem and leaf soluble protein, FIG. 10
# From the text: A AhR-ligand specific gene expression system for plants was constructed. It was constructed by introducing a AhR, Arnt and XRE to a plant. From a liver cDNA library prepared from C57BL/6 mouse, an AhR cDNA (Schmidt, J. V., et al, 1993) and an Arnt cDNA (Reisz-Porszasz, S., et al, 1994) were cloned. In order to constitutively express both cDNAs in a plant, there were constructed two kinds of plant expression plasmids pSKA2G and pSKAvAtG. The plasmids comprising a tandemly aligned XRE sequence, a transcription factor expression unit (i.e. the first transcription structure) inserted in an expression unit composed of a cauliflower mosaic virus 35S promoter (CaMV35S-P) and a nopaline synthase terminator (Nos-T), and a reporter unit composed of a reporter gene and Nos-T (structures are shown in FIG. 7). The PSKAvAtG contains a chimera AhR (AhRV) in which transcriptional activation domain of AhR is substituted with VP16 transcriptional activation domain (AhRV gene). Using Agrobacterium with each plasmid introduced therein, a tobacco plant (Nicotiana tabacum cv. Sumsun N N) was transformed by a leaf disc method.
# The plants which had been introduced with each plant expression plasmid were selected two times by antibiotic kanamycin. Each genomic DNA was extracted from re-differentiated individuals after kanamycin selection, and genomic PCR analysis was performed using primers specific for each of AhR or AhRV, Arnt and GUS.
# The plant transformed with either pSKA2G or pSKAvAtG is designated as AhR-GUS or AhRV-GUS plants, respectively. Axillary buds were removed from all transformed plants. […] Then the soluble protein fractions were extracted from stem and leaf parts of the grown buds, and the GUS activities of the fractions were measured. The medium were added with 0.01% Tween 20 and an AhR-ligand (20-MC) or a solvent DMSO solution to a final concentration of 0.1%. Similarly, a axillary bud was cultured for 2 weeks on an MS medium in the presence of various concentrations (8 grades) of AhR-ligand 20 MC. The AhR-ligand dose dependent expression of the reporter was analyzed. In addition, similarly, a axillary bud was cultured for 2 weeks on an MS medium containing 25 μM 20-MC, and tissue-specific expression of a reporter in a plant was analyzed using a GUS staining method. That is, each tissue of a plant was impregnation-treated in a X-Gluc solution (0.1M sodium phosphate buffer, pH 7.0, 1.9 mM X-glucuronide, 0.5 mM K3Fe(CN)6, 0.5 mM K4Fe(CN)6, 0.3% (v/v) Triton X-100, 20% methanol) under reduced pressure, then incubated at 37° C. overnight, and 70% ethanol was added to stop the reaction. Thereafter, decoloration was performed in 70% ethanol, and the tissue was observed under an optical microscope or stereomicroscope.
# AhR = settings: cultured mammal cell; cited from earlier work
# [2] = system: LexA operator promoter-LacZ reporter unit in yeast L40 strain expressing XDV/XVD (mouse AhR-ligand binding control region); assay: Yeast reporter assay system for XDV/XVD (LacZ activity); format: cell-based; settings: yeast introduced with XDV/XVD, FIG. 6
# Method: Yeasts introduced with various XDV/XVD expression plasmids were pre-cultured overnight in a liquid selective medium containing glucose as a carbon source, cultured for 14 to 16 hours in a liquid selective medium containing an AhR-ligand and galactose(as a carbon source), and the LacZ activity was measured.
# By using a reporter gene assay system using a yeast expression system, assessment of performance of XDV/XVD was performed.
# An yeast L40 strain having a reporter unit composed of a LexA operator promoter and a β-galactosidase gene (LacZ) in a chromosome [(MATa his3Δ200 trp1-901 leu2-3112 ade2 LYS2:: (41exAop-HIS3)URA3:: (81exAop-lacZ)GAL4) (Invitrogen, Netherland)) was transformed, and assessed by the LacZ activity dependent on the expression of XDV/XVD and ligand treatment as an index. […]
# Various AhR-ligands (dioxins) were dissolved in DMSO (a final concentration of DMSO in a medium was adjusted at 0.1%). […] An absorbance at 415 nm of the supernatant was measured. A LacZ unit was calculated by the following calculation equation:
# LacZ unit=absorbance at 415 nm/[absorbance at 600 nm of a diluted cultured yeast solution in which 200 μL of cultured yeast solution was diluted up to 1 mL]×reaction time (min)]×1000
Structure (SMILES),"GUS staining of tissues (X-Gluc) ([1]; 2 weeks on MS medium containing 25 μM 20-MC, leaf and stem, FIG. 12 B)","20-MC concentration in a medium that can be detected by the transformed plant ([1]; axillary bud cultured 2 weeks on MS medium, 8 grades of 20-MC) [nM]","GUS activity dependent on AhR-ligand treatment, line 4 and line 21 of AhRV-GUS plant ([1]; line 4 and line 21 of the AhRV-GUS plant, stronger than GUS under CaMV 35S-P, FIG. 9)",enhancement of the GUS activity in the presence of AhR-ligands [1],TCDD concentration detectable (AhR) [ppb],"LacZ activity on AhR-ligand treatment, in words [2]"
"Cc1ccc2cc3c(ccc4ccccc43)c3c2c1CC3 [20-MC, 20-methylcholanthrene]",remarkable expression of a GUS reporter gene,5,very strong enhancement of the GUS activity,remarkable,–,–
"Clc1cc2c(cc1Cl)Oc1cc(Cl)c(Cl)cc1O2 [TCDD, 2,3,7,8-TCDD]",–,–,–,–,0.01,–
"O=c1cc(-c2ccccc2)oc2ccc3ccccc3c12 [β-NF, β-naphthoflovone]",–,–,–,remarkable,–,enhancement of the LacZ activity was recognized
